The record followed here is patent publication US9725695B2, “Stem cell defined media for xeno-free and feeder free conditions and uses thereof” (The Regents of the University of California, priority 2010, dated 2017).

Assay [1] has as its system H-9s. The experiment in a line: H-9s concentration after 3 days in low protein formulation with different BME concentrations. Format: cell-based, human. The note with it: 20 μM, low protein amount formulation, p<0.01, t-test. The text has this: FIG. 7: H-9s concentration after 3 days of culture in low protein based formulation with different BME concentrations. Error bars were generated through independent quadruplicates.
Having a meticulous comparison between all RCCDs performed, it was noticed that BME concentration was different due to supplier differences. […] Still, considering that BME is not just an antioxidant but a denaturizing chemical as well, it is expected that this compound would have a greater effect on media formulated with low amount of proteins.
Astonishingly, BME is normally added and recommended in KSR based media and feeder free media like mTeSR1 and StemPro. However, the negative effect of this compound is probably buffered by the huge amount of proteins that these media got, around 10 grams per liter, while the invention provides at least 20 times less. This discovery represents a breakthrough in terms of what are the real needs of an ES cell, drastically changing the media and cell's environment.

Assay [2] has as its system H-9 cells. The experiment in a line: Kinetic growth of H-9 cells on feeders in PB12/RCCD media formulations (Integral, Px,max, μ) with Statistica effect/regression models. It counts as cell-based, human. Further details: Effect on Integral / Effect on μ: unit not given here. The following applies: for Effect on Integral / Effect on Px, max / Effect on μ: PB12, level −1 to +1 (ranges Table 2), least square method; for Regression coefficient (Linear), Px, max / Regression coefficient (Quadratic), Px, max / Regression coefficient (Linear), Integral: 1st RCCD, codified values; for Regression coefficient (Linear), Px, max / Regression coefficient (Quadratic), Px, max: R^2 = 80.0%; for Regression coefficient (Linear), Integral: R^2 = 86.4%. The text has this:
A Placket-Burman matrix of 12 independent conditions (PB12) was used (Table 1), according to the Design of Experiments (DOE) methodology for the screening of 8 factors (RODRIGUES & IEMMA, 2005). […] Since this first step, the PB12, is a screening step, whenever it was possible the concentration of the factor was set as zero. • Condition 0: represents the central condition of the DOE, being the mean value obtained from averaging the values for levels −1 and +1. In addition to the central condition, the “main” central condition is defined as a state when all factors are set to condition 0.
In total, 14 different conditions were examined: 12 related to the PB12 matrix, 1 related to the “main” central condition that was performed in quadruplicates for the error estimation and a control condition with KSR. The basal media was: a 1:1 mixture 1:1 of DMEM and Ham's F12 (DMEM/F12; Mediatech, Manassas, Va.; catalog number 10-092), 1% NEAA, 110 μM β-mercaptoethanol (BME; Sigma-Aldrich, St. Louis, Mo.; catalog number M7522), 50 μg/mL gentamicin sulfate (Mediatech, Manassas, Va.; catalog number 30-005-CR) and 8 ng/mL of FGF-2 (Peprotech, Rocky Hill, N.J.; catalog number 100-18B). FGF-2 was reconstituted in PBS at 100 ug/mL and was added to the media for a final concentration of 8 ng/mL at the start of the culture. During the culture period, additional FGF-2 (8 ng/mL) was added directly to the media on a daily basis.
Every 24 hours one well from each condition and 4 wells from the main central condition were enzymatic dissociated and counted with the help of an automatic counter (NucleoCounter NC-100), for an unbiased measure of cell growth. In that way, by the end of the 5 days, a kinetic curve was obtained for every single condition (FIG. 1). Readouts like integral of cells (integral; defined as area below the curve), maximum productivity (Px,max; defined as the highest value obtained from dividing cell number by time) or and specific global ( ) growth rate (or speed of cell growth obtained from the formula dX/dt=pX) were calculated in order to perform the statistics comparing all different curves (Table 3).
Through the estimation of the effects from the least square method and the calculation of the errors obtained by the replicates performed on the main central condition (formulation 13), “t” was calculated as the ratio of effect and error.
By comparing the calculated “t” value with “t” values from a Student's “t” distribution table for a bilateral distribution, the p-value was obtained for each parameter in every readout.
Aiming to understand better the contribution of each protein in the formulation of the media, an optimization step was performed using the Three-Variable Rotatable Central Composite Design (RCCD; Rodrigues and lemma, 2005). The concentration range of each supplement was the same as given in Table 2 for the PB12 design, with the same concentration for the level 0, −1, and +1 condition.
The basal media was: a 1:1 mixture 1:1 of DMEM and Ham's F12 (DMEM/F12; Mediatech, Manassas, Va.; catalog number 10-092), 1.5% NEAA, 8.46 mg/L citric acid, 0.89×10^−4 mM sodium selenite, 2 mM glutamine (total of 4.5 mM), BME 110 μM, gentamicin sulfate 50 μg/mL and 8 ng/mL of FGF-2.
As before, kinetics growth of H-9 cells were obtained and readouts like Integral and Px, max were calculated (Table 6).
Through the use of Statistica software (StatSoft, Tulsa, Okla.), a second order mathematical model was generated in order to evaluate the real contribution of each supplement (Table 7).

The subject of assay [3] is H-9 cells. The assay is described as above. Format: cell-based, human. The following applies: codified values.
The subject of assay [4] is H-9s. The following applies: extra amount of bicarbonate (2.4 g/L vs 1.2 g/L).
Protocol: A simple test was performed with KSR formulation, just changing basal media supplier and consequently just changing the amount of buffer.
In assay [5] the test system is wild-type iPS line. The experiment in a line: Feeder free 2-variable RCCD (Activin A, TGF-beta-1): self-renew (final cell growth achieved). The following applies: first feeder-free 2-variable RCCD, R^2 = 90.3%, p < 0.1; for Self-renew regression Coefficient (Linear): linear term of coded variable; for Self-renew regression Coefficient (Quadratic): quadratic term of coded variable. Format: cell-based. The text has this: (§1) Aiming to improve the efficacy of the media, stimulating other pathways, besides the FGF-path, were explored. The Nodal/Activin pathway is related to pluripotency/self-renew (XIAO, 2006), than the factors from TGF superfamily. Activin A (Peprotech, Rocky Hill, N.J.; catalog number 120-14E) and TGF-beta-1 (Peprotech, Rocky Hill, N.J.; catalog number 100-21C), were investigated in a 2-variable RCCD (Table 20).
(§2) In these experiments, a wild-type iPS line was used. In the same fashion as the feeder conditions, cells were homogenously inoculated in several plates in each different formulation. The main difference in this step was the readout analyzed. Kinetic growth were not obtained due to the problems related to managing several feeder-free plates. Thus, instead of calculating integral and Px,max, two other readouts were used. The first one was the final cell growth achieved, called here as self-renew and the other one was percent of pluripotency, obtained from FACs analyzes by the dual staining with SSEA-4 and Nanog.
Analyzing the model, it is clear that TGF-beta-1 and Activin A have similar parameters. Additionally, they got a negative interaction with each other; meaning that, from an optimization point of view, if one is raised the other should be diminished. Taking a look into the surface gives a better clue of the best regions.

For assay [6], the system named is wild-type iPS line. The experiment in a line: Feeder free 2-variable RCCD (Activin A, TGF-beta-1): percent of pluripotency, FACs dual staining SSEA-4 and Nanog. The following applies: p>0.1. Format: cell-based.
Excerpt: as §1, §2

Where [7] appears, read: RCCD for NEAA, citric acid and glutamine, R^2 = 89.5%.
Setting [8] is: RCCD for NEAA, citric acid and glutamine, R^2 = 90.7%.

As for `OCCS` [BME, β-mercaptoethanol], the “effect on ES cell growth” value in assay [1] is given as “statistically negative effect”.
As for `O=C(O)CC(O)(CC(=O)O)C(=O)O` [Citric Acid, citric acid], in assay [2], the “Effect on Integral” value is 17.09; the “Effect on Px, max” value is reported as 0.0060; the “Effect on μ” value worked out at 0.0065. In assay [3] (setting [7]), the “Regression coefficient (Linear), Px, max” value is reported as −0.0020 and the “Regression coefficient (Quadratic), Px, max” value is recorded as −0.0104. Also, in assay [3] (setting [8]), the “Regression coefficient (Linear), Integral” value is on record as 1.63 and the “Regression coefficient (Quadratic), Integral” value is on record as −33.83.
In the case of `NCCO` [Etan., ethanolamine], in assay [2], the “Effect on Integral” value was −0.56; the “Effect on Px, max” value was −0.0055; the “Effect on μ” value came out at 0.0006.
In the case of `NC(=O)CC[C@H](N)C(=O)O` [Glut, glutamine], in assay [2], the “Effect on Integral” value is −39.15; the “Effect on Px, max” value is −0.0088; the “Effect on μ” value came out at 0.0023. In addition, in assay [3] (setting [7]), the “Regression coefficient (Linear), Px, max” value was −0.0010 and the “Regression coefficient (Quadratic), Px, max” value was −0.0050. In assay [3] (setting [8]), the “Regression coefficient (Linear), Integral” value worked out at 2.10 and the “Regression coefficient (Quadratic), Integral” value is reported as −10.20.
For the molecule `O=[Se]([O-])[O-].[Na+].[Na+]` [Selenite, sodium selenite], in assay [2], the “Effect on Integral” value was 7.46; the “Effect on Px, max” value is listed as 0.0029; the “Effect on μ” value came to 0.0098.
Turning to `O=C([O-])O.[Na+]` [bicarbonate, sodium bicarbonate], in assay [4], the “cell growth with KSR formulation” value is given as “perform better”.
For “Activin A: Activin A (Peprotech), factor from TGF superfamily”, in assay [5], the “Self-renew regression Coefficient (Linear)” value is −0.430 and the “Self-renew regression Coefficient (Quadratic)” value was 0.798. In addition, the “statistical relevance of model parameters for pluripotency” value in assay [6] is given as “no parameters either related to Activin A or TGF-beta-1 that were statistically relevant”.
For IGF-1, the “Regression coefficient (Linear), Px, max” value amounted to 0.0121 in assay [2]; 0.0021 in assay [3] (2nd RCCD, R^2 = 37.9%); 0.0003 in assay [3] (3rd RCCD, R^2 = 86.4%); 0.0028 in assay [3] (4th RCCD, R^2 = 69.0%). The “Regression coefficient (Quadratic), Px, max” value in assay [2] is recorded as −0.0036; in assay [3] (2nd RCCD, R^2 = 37.9%), −0.0011; in assay [3] (3rd RCCD, R^2 = 86.4%) it was 0.0041; in assay [3] (4th RCCD, R^2 = 69.0%), 0.0046. The “Regression coefficient (Linear), Integral” value is given as 42.99 in assay [2]; 17.03 in assay [3] (2nd RCCD, R^2 = 62.7%); 0.24 in assay [3] (3rd RCCD, R^2 = 65.8%); 3.10 in assay [3] (4th RCCD, R^2 = […]). Also, in assay [2], the “Effect on Integral” value was 97.69. Besides, the “Effect on Px, max” value in assay [2] turned out to be 0.0292. Further, the “Effect on μ” value in assay [2] came to 0.0027. Also, the “Regression coefficient (Quadratic), Integral” value in assay [3] (1st RCCD, R^2 = 86.4%) is recorded as −1.19; in assay [3] (2nd RCCD, R^2 = 62.7%), −4.60; in assay [3] (3rd RCCD, R^2 = 65.8%), 7.12; in assay [3] (4th RCCD, R^2 = […]) it was 10.30.
Consider “TGF-beta-1: TGF-beta-1 (Peprotech), factor from TGF superfamily”, for which the “statistical relevance of model parameters for pluripotency” value in assay [6] was “no parameters either related to Activin A or TGF-beta-1 that were statistically relevant”.
As to TGF-β-1, in assay [5], the “Self-renew regression Coefficient (Linear)” value is recorded as −0.508 and the “Self-renew regression Coefficient (Quadratic)” value worked out at 0.936.
Consider “Transf.: CellPrime rTransferrin AF recombinant human transferrin (Millipore)”, for which the “Regression coefficient (Linear), Px, max” value in assay [2] is listed as 0.0107; in assay [3] (2nd RCCD, R^2 = 37.9%), 0.0027; in assay [3] (3rd RCCD, R^2 = 86.4%) it was 0.0013; in assay [3] (4th RCCD, R^2 = 69.0%), 0.0021. Further, the “Regression coefficient (Quadratic), Px, max” value is 0.0028 in assay [2]; −0.0014 in assay [3] (2nd RCCD, R^2 = 37.9%); 0.0018 in assay [3] (3rd RCCD, R^2 = 86.4%); −0.0034 in assay [3] (4th RCCD, R^2 = 69.0%). The “Regression coefficient (Linear), Integral” value in assay [2] is 43.29; in assay [3] (2nd RCCD, R^2 = 62.7%) it was 18.70; in assay [3] (3rd RCCD, R^2 = 65.8%), 4.61; in assay [3] (4th RCCD, R^2 = […]) it was 1.17. For the same molecule, in assay [2], the “Effect on Integral” value is given as 65.44. In addition, in assay [2], the “Effect on Px, max” value came out at 0.0189. Moreover, in assay [2], the “Effect on μ” value was 0.0169. For the same molecule, the “Regression coefficient (Quadratic), Integral” value in assay [3] (1st RCCD, R^2 = 86.4%) is reported as 4.06; in assay [3] (2nd RCCD, R^2 = 62.7%) it was 5.70; in assay [3] (3rd RCCD, R^2 = 65.8%) it was 3.59; in assay [3] (4th RCCD, R^2 = […]), −14.34.
